Experimental data from patent US7572765B2, “Conformationally constrained parathyroid hormone (PTH) analogs” (The General Hospital Corporation, priority 2001, dated 2009).
Each block holds one compound with its values, some of them ahead of it. Square brackets hold non-standard residues; d marks the D form. Peptide text beside a SMILES is read from it. hArg = N=C(N)NCCCC[C@H](N)C(=O)O; Aib = CC(C)(N)C(=O)O

Columns and labels:
human P1R = target: T1, human P1R (Homo sapiens, UniProt Q03431); experiment: Competition binding in HKRK-B28 cells; settings: HKRK-B28 cells; for IC50 / Binding IC50: tracer 125I-[M]PTH(1-21)amide, 4 h at 4° C., N.B. = no binding detected at 10 μm peptide
T1 construct: expressed in transfected cells; host or cells: HKRK-B28 (porcine kidney LLC-PK1, stably transfected)
T1 sequence (Q03431 27-593): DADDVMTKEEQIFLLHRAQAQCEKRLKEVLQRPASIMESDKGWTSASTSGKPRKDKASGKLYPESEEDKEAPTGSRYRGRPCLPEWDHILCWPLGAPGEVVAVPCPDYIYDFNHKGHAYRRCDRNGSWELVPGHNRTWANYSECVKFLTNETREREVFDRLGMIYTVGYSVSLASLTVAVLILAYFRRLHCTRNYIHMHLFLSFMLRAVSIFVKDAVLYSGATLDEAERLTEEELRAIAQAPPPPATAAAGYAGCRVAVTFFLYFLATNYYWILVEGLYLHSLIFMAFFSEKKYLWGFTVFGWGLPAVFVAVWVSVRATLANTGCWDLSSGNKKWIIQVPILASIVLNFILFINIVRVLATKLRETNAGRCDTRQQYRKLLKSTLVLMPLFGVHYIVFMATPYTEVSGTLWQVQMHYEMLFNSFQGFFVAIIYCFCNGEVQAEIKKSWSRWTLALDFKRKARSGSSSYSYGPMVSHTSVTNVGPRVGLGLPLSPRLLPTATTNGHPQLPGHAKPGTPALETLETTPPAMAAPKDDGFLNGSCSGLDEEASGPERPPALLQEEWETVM
Description: (§1) Cell Culture. The cell line HKRK-B28 (Takasu, H., et al., J. Bone Miner. Res. 14:11-20 (1999)) was derived from the porcine kidney cell line, LLC-PK1 by stable transfection with plasmid DNA encoding the human P1R and expresses ˜280,000 receptors per cell. These cells, as well as COS-7 cells and SaOS-2-B10 cells, were cultured at […] in T-75 flasks ([…]) in Dulbecco's modified Eagle's medium (DMEM) supplemented with fetal bovine serum (10%), penicillin G (20 units/ml), streptomycin sulfate (20 μg/ml) and amphotericin B (0.05 μg/ml) in a humidified atmosphere containing 5% CO2. Stock solutions of EGTA/trypsin and antibiotics were from GIBCO; fetal bovine serum was from Hyclone Laboratories (Logan, Utah). COS-7 cells sub-cultured in 24-well plates were transfected with plasmid DNA (200 ng per well) encoding the wild-type human P1R or truncated human P1R deleted for residues (24-181) (Shimizu, M., et al., J. Biol. Chem. 275:21836-21843 (2000)) that was purified by cesium chloride/ethidium bromide density gradient centrifugation, and FuGENE 6 transfection reagent (Roche Indianapolis Ind.) according to the manufacturer's recommended procedure. All cells, in 24-well plates, were treated with fresh media and shifted to 33° C. for 12 to 24 h prior to assay.
Competition Binding. Binding reactions were performed with HKRK-B28 cells or in COS-7 cells in 24-well plates. The cells were rinsed with 0.5 mL of binding buffer, and then treated successively with 100 μL binding buffer, 100 μL of binding buffer containing various amounts of unlabeled competitor ligand, and 100 μL of binding buffer containing ca. 100,000 cpm of ^125I-[M]PTH(1-21) or ^125I-[Aib^1,3,M]PTH(1-21)} (ca. 26 fmol; final volume=300 μL). Incubations were 4 to 6 h at 4° C., at which time near equilibrium conditions were attained. Cells were then placed on ice, the binding medium was removed, and the monolayer was rinsed three times with 0.5 mL of cold binding buffer. The cells were subsequently lysed with 0.5 mL […] and counted for radioactivity. For each tracer and in each experiment, the non-specific binding was determined as the radioactivity that bound in the presence of the same unlabeled peptide at a concentration of 1 μM, and was ˜1% of total radioactivity added for each tracer. The maximum specific binding (B0) was the total radioactivity bound in the absence of competing ligand, corrected for nonspecific binding, and for each tracer, ranged from 8% to 20% of the total radioactivity added. Nonlinear regression was used to calculate binding IC50 values (see below). Scatchard transformations of homologous competition binding data derived from studies with 26 fmol of ^125I-[Aib^1,3,M]PTH(1-21) were employed for estimations of apparent equilibrium dissociation constant (kDapps) and total number of ligand binding sites (Bmax), assuming a single class of binding sites and equal affinities of the iodinated and non iodinated ligand.
(§2) Data Calculation. Calculations were performed using Microsoft® Excel. Nonlinear regression analyses of binding and cAMP dose-response data were performed using the four-parameter equation: yp=Min+[(Max−Min)/(1+(IC50/x)^slope)]. The Excel Solver function was utilized for parameter optimization, as described previously (Carter, P. H., et al., Endocrinology 140: 4972-4981 (1999); Bowen, W. P., and Jerman, J. C., Trends in Pharmacol. Sci. 16: 413-417 (1995)). Differences between paired data sets were statistically evaluated using a one-tailed Student's t-test, assuming unequal variances for the two sets.
The P1R-binding properties of these analogs were assayed in competition studies performed in […]. In previous studies, PTH(1-14) binding could not be detected using ^125I-PTH(1-34) and related N-terminally intact and relatively unmodified radioligands (Luck, M. D., et al., Molecular Endocrinology 13:670-680 (1999)). […]

[1] = target: T2, PTH-1 receptor endogenously expressed in SaOS-2 cells (Homo sapiens, UniProt Q03431); experiment: cAMP stimulation in SaOS-2 cells; assay type: cell-based; settings: for EMAX(obs.): basal 6.4 ± 0.8; for EC50: N.R. = no cAMP response detected
T2 construct: endogenously expressed relatively low levels of the PTH-1 receptor; endogenous in cells; host or cells: SaOS-2 (SaOS-2-B10) human osteosarcoma cells
T2 sequence (Q03431 27-593): T1 sequence (Q03431 27-593)
Description: as §1
cAMP Stimulation. Stimulation of cells with peptide analogs was performed in 24-well plates. Cells were rinsed with 0.5 mL of binding buffer (50 mM Tris-HCI, […], 5 mM KCl, 2 mM CaCl2, 5% heat-inactivated horse serum, 0.5% fetal bovine serum, adjusted to pH 7.5 with HCl) and treated with 200 μL of cAMP assay buffer (Delbecco's modified Eagle's medium containing 2 mM 3-isobutyl-1-methylxanthine, 1 mg/mL bovine serum albumin, 35 mM Hepes-NaOH, pH 7.4) and 100 μL of binding buffer containing varying amounts of peptide analog (final volume=300 μL). The medium was removed after incubation for 30 to 60 minutes at room temperature, and the cells were frozen on dry ice, lysed with 0.5 mL 50 mM HCl, and refrozen ([…]). The cAMP content of the diluted lysate was determined by radioimmunoassay. The EC50 response values were calculated using nonlinear regression (see below).
as §2
The number of PTH-1 receptors expressed on the surface of the PTH target cells in bone or kidney is uncertain, but it is likely to be considerably lower than that found in HKRK-B28 cells. Therefore, several of the Aib-mounted PTH analogs were evaluated using SaOS-2 cells.

IC50 (human P1R): 1.8e-08 ± 3e-09 M
EMAX(obs.) ([1]; cAMP): 350 ± 30 pmole/well
Compound: CCCC[C@H](NC(=O)[C@H](CCCNC(=N)N)NC(=O)[C@H](CCC(=O)O)NC(=O)[C@@H](NC(=O)[C@H](CO)NC(=O)[C@H](C)NC(=O)[C@H](CC(C)C)NC(=O)[C@H](Cc1c[nH]cn1)NC(=O)[C@H](CCCCN)NC(=O)CNC(=O)[C@H](CC(C)C)NC(=O)[C@H](CC(N)=O)NC(=O)[C@H](Cc1c[nH]cn1)NC(=O)[C@H](CCCC)NC(=O)[C@H](CC(C)C)NC(=O)[C@H](CCC(N)=O)NC(=O)[C@@H](NC(=O)[C@H](CCC(=O)O)NC(=O)[C@H](CO)NC(=O)[C@@H](NC(=O)[C@H](C)N)C(C)C)[C@@H](C)CC)C(C)C)C(=O)N[C@@H](CCC(N)=O)C(=O)N[C@@H](Cc1c[nH]c2ccccc12)C(=O)N[C@@H](CC(C)C)C(=O)N[C@@H](CCCNC(=N)N)C(=O)N[C@@H](CCCCN)C(=O)N[C@@H](CCCCN)C(=O)N[C@@H](CC(C)C)C(=O)N[C@@H](CCC(N)=O)C(=O)N[C@@H](CC(=O)O)C(=O)N[C@H](C(=O)N[C@@H](Cc1c[nH]cn1)C(=O)N[C@@H](CC(N)=O)C(=O)N[C@@H](Cc1ccc(O)cc1)C(N)=O)C(C)C [PTH(1-34), [Nle^8,21, Tyr^34]PTH(1-34)amide, reference compound]

Binding IC50 (human P1R): did not bind detachably
Binding IC50 (human P1R; M]PTH (1-10)): N.B.
Compound: CC[C@H](C)[C@H](NC(=O)[C@H](CCC(=O)O)NC(=O)C(C)(C)NC(=O)[C@@H](NC(=O)C(C)(C)N)C(C)C)C(=O)N[C@@H](CCC(N)=O)C(=O)N[C@@H](CC(C)C)C(=O)N[C@@H](CCSC)C(=O)N[C@@H](Cc1c[nH]cn1)C(=O)N[C@@H](CCC(N)=O)C(N)=O [[Aib^1,3,M]PTH(1-10), [Aib^1,3,Gln^10]PTH(1-10)] (H-[Aib]V[Aib]EIQLMHQ-NH2)

IC50 (human P1R): 9.7e-07 ± 3e-07 M
Compound: CC[C@H](C)[C@H](NC(=O)[C@H](CCC(=O)O)NC(=O)C(C)(C)NC(=O)[C@@H](NC(=O)C(C)(C)N)C(C)C)C(=O)N[C@@H](CCC(N)=O)C(=O)N[C@@H](CC(C)C)C(=O)N[C@@H](CCSC)C(=O)N[C@@H](Cc1c[nH]cn1)C(=O)N[C@@H](CCC(N)=O)C(=O)N[C@@H](CCCCNC(=N)N)C(N)=O [[Aib^1,3,M]PTH(1-11), AibValAibGluIleGlnLeuMetHisGlnHar] (H-[Aib]V[Aib]EIQLMHQ[hArg]-NH2)

EMAX(obs.) ([1]; cAMP): 340 ± 30 pmole/well
Compound: CC[C@H](C)[C@H](NC(=O)[C@H](CCC(=O)O)NC(=O)[C@H](C)NC(=O)[C@@H](NC(=O)[C@H](C)N)C(C)C)C(=O)N[C@@H](CCC(N)=O)C(=O)N[C@@H](CC(C)C)C(=O)N[C@@H](CCSC)C(=O)N[C@@H](Cc1c[nH]cn1)C(=O)N[C@@H](CCC(N)=O)C(=O)N[C@@H](CCCCNC(=N)N)C(=O)N[C@@H](C)C(=O)N[C@@H](CCCCN)C(=O)N[C@@H](Cc1c[nH]c2ccccc12)C(N)=O [[M]PTH(1-14), [Ala^3,12,Gln^10,Har^11,Trp^14]PTH(1-14)amide, reference compound] (H-AVAEIQLMHQ[hArg]AKW-NH2)

fold improvement of apparent binding affinity relative to [M]PTH(1-14) (human P1R): 100 fold
fold improvement of apparent binding affinity relative to [M]PTH(1-14) (human P1R; listed as Aib-1,3): approximately 100 fold
IC50 (human P1R): 1.3e-07 ± 2e-08 M
fold more potent in stimulating cAMP formation than [M]PTH(1-14) [1]: 130 fold
fold less potent than PTH(1-34) ([1]; cAMP): 13 fold
EMAX(obs.) ([1]; cAMP): 320 ± 30 pmole/well
Compound: CC[C@H](C)[C@H](NC(=O)[C@H](CCC(=O)O)NC(=O)C(C)(C)NC(=O)[C@@H](NC(=O)C(C)(C)N)C(C)C)C(=O)N[C@@H](CCC(N)=O)C(=O)N[C@@H](CC(C)C)C(=O)N[C@@H](CCSC)C(=O)N[C@@H](Cc1c[nH]cn1)C(=O)N[C@@H](CCC(N)=O)C(=O)N[C@@H](CCCCNC(=N)N)C(=O)N[C@@H](C)C(=O)N[C@@H](CCCCN)C(=O)N[C@@H](Cc1c[nH]c2ccccc12)C(N)=O [[Aib^1,3,M]PTH(1-14), AibValAibGluIleGlnLeuMetHisGlnHarAlaLysTrp] (H-[Aib]V[Aib]EIQLMHQ[hArg]AKW-NH2)

EC50 ([1]; cAMP): N.R.
EC50 ([1]; cAMP, listed as native PTH(1-14)): no activity could be detected
Compound: H-AVSEIQLMHNLGKH-NH2 [PTH(1-14), reference compound]
